Measurements: US6338963B1, “Use of carbon monoxide dependent guanylyl cyclase modifiers to stimulate neuritogenesis” (NeoTherapeutics, Inc., priority 1994, dated 2002)

Tested on: PC12 cells
Test: Neuritogenesis in PC12 cells
Format: cell-based, rat
Settings: for enhancement of NGF-induced neurite outgrowth: in the presence of NGF, 48 hours; for neurite outgrowth in the absence of NGF: compound alone; for effect of inhibitor on NGF neuritogenic activity: PC12 cells with NGF; for effect of inhibitor on neuritogenic effects of guanosine: PC12 cells with guanosine and NGF; for effect of inhibitor on neuritogenic action of AIT-082 / stimulation of neuritogenesis and enhancement of NGF-stimulated neuritogenesis: PC12 cells
Protocol: Much of the work performed in the characterization of the compounds of the present invention involved the use of PC12 cells. These cells are derived from a rat pheochromocytoma and when grown in the presence of NGF, extend neurites, cease cell division and assume many characteristics of sympathetic neurons. When cultured in the absence of nerve growth factor (NGF), few PC12 cells have neurites greater than one cell diameter. Addition of saturating concentrations of NGF for 48 hours stimulates neurite outgrowth in about 20-35% of the cells. Because they constitute a homogeneous population of neuronal-like cells, without contaminating astroglia type cells, it is possible to study the direct effects of the purine based compounds on neurite outgrowth in these cells.
Cells cultured in RPMI 1640 with 1.5% horse serum and 1.5% fetal bovine serum were re-plated onto poly-ornithine coated 24-well culture plates (2.5×10^4 cells per well). AIT-082 and NGF were added to the various cultures immediately upon plating. After 48 hours, medium was removed and the cells irnmediately fixed in 10% formalin and PBS for 10 minutes. Cells and neurites were counted within 2 days of fixation.
A neurite was defined as a process extending from the cell at least 1 cell body diameter in length and displaying a growth cone at its tip. For each treatment, 2 representative microscope fields were counted from each of 6 sister cultures receiving identical treatments. The total number of cells counted per well (approximately 100 cells) and the total number of cells containing neurites in each well were used to determine fraction of neurite-bearing cells. The mean values (±SEM) were then determined for each of the treatments. To facilitate comparison neurite outgrowth was expressed relative to the proportion of cells bearing neurites in the presence of NGF alone (NGF=100%). The effects of compounds with and without NGF were compared by analysis of variance (ANOVA) followed by Tukey's test for significance.
The results are shown in FIG. 3 where the curve represents different levels of AIT-082 plus saturating concentrations (40 ng/ml) NGF. The center horizontal line represents control values for cells cultured in the presence of 40 ng/ml NGF alone. Upper and lower horizontal lines are indicative of confidence limits of NGF alone as determined using standard statistical methods.

Question: How did the “modification of neural activity” value turn out when `CCOC(=O)CCn1cnc2c(N)ncnc21` [AIT-0026, 3-(6-amino-9H-purin-9-yl)propionic acid, ethyl ester] was run?
Answer: failed to modify neural activity

Question: How did the “modification of neural activity” value turn out when `O=C(CCn1cnc2c(=O)[nH]cnc21)NCCCN1CCCC1=O` [AIT-034, 3-(1,6 dihydro-6-oxo-9hpurin-9-yl)-N-(3-(2-oxopyrrolidin-1-yl)propyl) propanamide] was run?
Answer: failed to modify neural activity

Question: What about the “enhancement of NGF-induced neurite outgrowth” value of the same molecule?
Answer: did not enhance NGF-induced neuritogenesis

Question: Which “neurite outgrowth in the absence of NGF” value does the source give for `Nc1ncnc2c1ncn2[C@@H]1O[C@H](COP(=O)(O)OP(=O)(O)OP(=O)(O)O)[C@@H](O)[C@H]1O` [ATP, adenosine triphosphate] here?
Answer: did not enhance neuritogenesis

Question: And the “enhancement of NGF-induced neurite outgrowth” value?
Answer: did not enhance neuritogenesis

Question: For `Nc1nc2c(ncn2[C@@H]2O[C@H](COP(=O)(O)OP(=O)(O)O)[C@@H](O)[C@H]2O)c(=O)[nH]1` [GDP, guanosine diphosphate], which “enhancement of NGF-induced neurite outgrowth” value is on record?
Answer: neither GDP nor GMP were effective alone or with NGF

Question: `Nc1nc2c(ncn2[C@@H]2O[C@H](COP(=O)(O)O)[C@@H](O)[C@H]2O)c(=O)[nH]1` [GMP, guanosine monophosphate] was tested. Which “enhancement of NGF-induced neurite outgrowth” value did it give?
Answer: neither GDP nor GMP were effective alone or with NGF

Question: `O=C1C(Nc2ccccc2)=CC(=O)c2ncccc21` [LY83583] was tested. Which “effect of inhibitor on NGF neuritogenic activity” value did it give?
Answer: the response elicited by NGF was unaffected

Question: And the “effect of inhibitor on neuritogenic effects of guanosine” value (“effect of inhibitor … of guanosine” below)?
Answer: inhibited

Question: Which “effect of inhibitor on neuritogenic action of AIT-082” value does the source give for `CN(C)c1ccc2nc3ccc(=[N+](C)C)cc-3sc2c1` [Methylene blue] here?
Answer: inhibited the action of AIT-082

Question: And the “effect of inhibitor on NGF neuritogenic activity” value?
Answer: no effect on NGF activity

Question: And the “effect of inhibitor on NGF neuritogenic activity” value (listed as MB)?
Answer: no effect on NGF-stimulated neurite outgrowth

Question: What about the “effect of inhibitor … of guanosine” value of the same molecule?
Answer: abolished the synergistic effects of guanosine with NGF

Question: How did the “neurite outgrowth in the absence of NGF” value turn out when `CCNC(=O)[C@H]1O[C@@H](n2cnc3c(N)ncnc32)[C@H](O)[C@@H]1O` [NECA, 5′-N-ethylcarboxamidoadenosine] was run?
Answer: little stimulation of neurite outgrowth

Question: What about the “effect on the actions of guanosine” value (in the presence and absence of NGF) of the same molecule?
Answer: could synergistically enhance the actions of guanosine

Question: What about the “enhancement of NGF-induced neurite outgrowth” value of the same molecule?
Answer: also enhanced neuritogenesis, but not to the same extent as guanosine

Question: Which “neurite outgrowth in the absence of NGF” value does the source give for `O=NO` [SN, sodium nitrite] here?
Answer: neither SNP nor SN elicited neurite outgrowth

Question: What about the “enhancement of NGF-induced neurite outgrowth” value of the same molecule?
Answer: enhanced NGF-mediated neurite outgrowth in a synergistic manner

Question: For `C=CC1=C(C)c2cc3[n-]c(cc4[n-]c(cc5nc(cc1n2)C(C)=C5C=C)c(C)c4CCC(=O)O)c(CCC(=O)O)c3C.[Zn+2]` [Zinc protoporphyrin IX], which “effect of inhibitor on neuritogenic action of AIT-082” value is on record?
Answer: inhibited the action of AIT-082

Question: What about the “effect of inhibitor on NGF neuritogenic activity” value of the same molecule?
Answer: no effect on NGF activity

Question: And the “effect of inhibitor on NGF neuritogenic activity” value (listed as ZnPP)?
Answer: did not affect those of NGF

Question: And the “effect of inhibitor … of guanosine” value?
Answer: abolished the neuritogenic effects of guanosine

Question: What does the source list for `Nc1ncnc2c1ncn2[C@@H]1O[C@H](CO)[C@@H](O)[C@H]1O` [adenosine]?
Answer: modification of neural activity: relatively ineffective; neurite outgrowth in the absence of NGF: slightly increased the proportion of cells with neurites; enhancement of NGF-induced neurite outgrowth: did not enhance NGF induced neurite outgrowth at any concentration

Question: How did the “modification of neural activity” value turn out when `O=c1[nH]cnc2nc[nH]c12` [hypoxanthine] was run?
Answer: relatively ineffective

Question: What about the “stimulation of neuritogenesis and enhancement of NGF-stimulated neuritogenesis” value of the same molecule?
Answer: weakly effective

Question: And the “enhancement of NGF-induced neurite outgrowth” value?
Answer: the greatest, although still modest, enhancement

Question: `OC[C@H]1O[C@@H](n2cnc3c(O)ncnc32)[C@H](O)[C@@H]1O` [inosine] was tested. Which “modification of neural activity” value did it give?
Answer: relatively ineffective

Question: What about the “stimulation of neuritogenesis and enhancement of NGF-stimulated neuritogenesis” value of the same molecule?
Answer: weakly effective

Question: What about the “enhancement of NGF-induced neurite outgrowth” value of the same molecule?
Answer: only slightly enhanced neurite outgrowth

Question: How did the “modification of neural activity” value turn out when `CCCn1cnc2c1c(=O)n(CCCCC(C)=O)c(=O)n2C` [propentofylline] was run?
Answer: failed to modify neural activity
